± gives the standard deviation of the averaged measurements.
Key:
Assay in all cases: level (log10 ratio to DMSO vehicle control); higher = higher biomarker level / cell amount than vehicle control
Conditions in all cases: in DMSO
[1] = compound: C=CC(=O)OCC(F)(F)C(F)(F)C(F)(F)C(F)(F)C(F)(F)C(F)(F)C(F)(F)C(F)F [1H,1H,9H-Perfluorononyl acrylate]
Description: (§1)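 BioMAP Diversity Plus panel of 12 human primary cell co-culture systems (3C, 4H, LPS, SAg, BT, BF4T, BE3C, CASM3C, HDF3CGF, KF3CT, MyoF, Mphg). Compounds were added 1 h before stimulation and left for 24 h (MyoF 48 h; BT 72 h for soluble read-outs or 6 d for IgG). Biomarkers were read by ELISA, cytotoxicity by SRB, PBMC viability and proliferation by Alamar Blue. Each well value was divided by the mean of 8 DMSO control wells on the same plate and log10 transformed; duplicate blinded samples were tested at 4 concentrations.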

[2] = compound: C=CC(=O)OCCC(F)(F)C(F)(F)C(F)(F)C(F)(F)C(F)(F)C(F)(F)C(F)(F)C(F)(F)F [8:2 Fluorotelomer acrylate]
Description: as §1

[3] = compound: FC(F)(F)C(F)(F)C(F)(F)C(F)(F)CCI [1H,1H,2H,2H-Perfluorohexyl iodide]
Description: as §1

[4] = compound: O=P(O)(O)CCC(F)(F)C(F)(F)C(F)(F)C(F)(F)C(F)(F)C(F)(F)F [2-(Perfluorohexyl)ethylphosphonic acid]
Description: as §1

[5] = compound: O=S(=O)(O)CCC(F)(F)C(F)(F)C(F)(F)C(F)(F)F [4:2 Fluorotelomer sulfonic acid]
Description: as §1

[6] = compound: O=S(=O)(OCC(F)(F)F)C(F)(F)C(F)(F)C(F)(F)C(F)(F)F [2,2,2-Trifluoroethyl perfluorobutanesulfonate]
Description: as §1

Row | Test System | level (log10) ([1]; 6700 nM) | level (log10) ([1]; 20000 nM) | level (log10) ([1]; 60000 nM) | level (log10) ([2]; 6700 nM) | level (log10) ([2]; 20000 nM) | level (log10) ([2]; 60000 nM) | level (log10) ([3]; 6700 nM) | level (log10) ([3]; 20000 nM) | level (log10) ([3]; 60000 nM) | level (log10) ([4]; 6700 nM) | level (log10) ([4]; 20000 nM) | level (log10) ([4]; 60000 nM) | level (log10) ([5]; 6700 nM) | level (log10) ([5]; 20000 nM) | level (log10) ([5]; 60000 nM) | level (log10) ([6]; 6700 nM) | level (log10) ([6]; 20000 nM) | level (log10) ([6]; 60000 nM)
1 | lMphg:CCL3/MIP-1alpha | 0.015 | 0.012 ± 0.023 | 0.061 ± 0.0028 | 0.056 ± 0.011 | 0.0485 ± 0.047 | 0.0325 ± 0.025 | -0.0185 ± 0.00071 | -0.0515 ± 0.023 | -0.013 ± 0.014 | 0.035 ± 0.044 | 0.019 ± 0.028 | 0.0315 ± 0.019 | 0.047 ± 0.031 | 0.021 ± 0.054 | 0.0465 ± 0.042 | -0.025 ± 0.052 | -0.078 ± 0.054 | -0.119 ± 0.018
2 | BE3C:PAI-I | -0.029 ± 0.031 | -0.003 ± 0.018 | -0.02 ± 0.011 | -0.0355 ± 0.0092 | -0.018 | 0.0055 ± 0.025 | -0.0335 ± 0.0064 | -0.0305 ± 0.036 | -0.051 ± 0.0085 | -0.036 ± 0.0028 | -0.0065 ± 0.012 | 0.052 ± 0.04 | -0.0075 ± 0.0035 | -0.014 ± 0.0085 | -0.008 ± 0.017 | -0.0005 ± 0.011 | 0.003 ± 0.0085 | 0.014 ± 0.011
3 | MyoF:bFGF | 0.012 ± 0.0057 | 0.0155 ± 0.021 | 0.027 ± 0.0014 | -0.015 ± 0.0028 | -0.015 ± 0.014 | -0.0025 ± 0.0092 | 0.0095 ± 0.021 | 0.0205 ± 0.026 | 0.0285 ± 0.042 | -0.0415 ± 0.011 | -0.0285 ± 0.00071 | -0.0255 ± 0.021 | -0.001 ± 0.0071 | 0.0025 ± 0.028 | 0.0055 ± 0.022 | -0.015 ± 0.0042 | -0.0015 ± 0.03 | -0.0195 ± 0.00071
4 | HDF3CGF:TIMP-1 | 0.001 ± 0.042 | -0.0005 ± 0.04 | -0.0165 ± 0.047 | -0.03 ± 0.02 | -0.0265 ± 0.022 | -0.011 ± 0.061 | 0.012 ± 0.037 | -0.0115 ± 0.05 | -0.065 ± 0.083 | -0.0115 ± 0.018 | 0.0035 ± 0.005 | 0.0545 ± 0.06 | -0.0045 ± 0.047 | -0.0015 ± 0.00071 | 0.0035 ± 0.084 | -0.0095 ± 0.042 | 0.039 ± 0.0042 | 0.0325 ± 0.021
5 | CASM3C:Serum Amyloid A | -0.014 ± 0.014 | -0.0825 ± 0.071 | -0.067 ± 0.0071 | -0.0075 ± 0.013 | -0.0125 ± 0.022 | 0.018 ± 0.028 | -0.017 ± 0.0042 | -0.0155 ± 0.039 | 0.0305 ± 0.1 | 0.004 ± 0.023 | -0.0045 ± 0.0035 | 0.0235 ± 0.0092 | -0.008 ± 0.017 | -0.0055 ± 0.0021 | -0.015 ± 0.041 | -0.0625 ± 0.077 | -0.0375 ± 0.052 | 0.006 ± 0.031
6 | lMphg:CXCL8/IL-8 | 0.014 ± 0.02 | 0.0025 ± 0.0064 | 0.038 ± 0.014 | -0.009 ± 0.052 | 0.019 ± 0.035 | 0.0665 ± 0.029 | -0.0325 ± 0.0035 | -0.006 ± 0.0085 | 0.0355 ± 0.018 | -0.008 ± 0.0028 | -0.0315 ± 0.033 | 0.0385 ± 0.026 | -0.0295 ± 0.043 | -0.0215 ± 0.021 | 0.005 ± 0.031 | 0.031 | 0.025 ± 0.018 | 0.072 ± 0.068
7 | lMphg:CD62E/E-Selectin | 0 ± 0.0099 | -0.004 ± 0.02 | -0.01 ± 0.017 | 0.019 ± 0.038 | 0.0215 ± 0.0064 | 0.041 ± 0.034 | -0.021 ± 0.0071 | -0.0105 ± 0.026 | 0.0315 ± 0.0064 | -0.015 ± 0.013 | -0.017 ± 0.0042 | 0.075 ± 0.0085 | -0.0235 ± 0.033 | -0.0105 ± 0.061 | -0.0105 ± 0.011 | 0.02 ± 0.031 | 0.0255 ± 0.033 | -0.0435 ± 0.0064
8 | MyoF:MMP-1 | -0.001 ± 0.054 | 0.0505 ± 0.0064 | 0.27 ± 0.033 | -0.0295 ± 0.0092 | -0.06 ± 0.071 | 0.0075 ± 0.098 | -0.0055 ± 0.023 | -0.0045 ± 0.039 | 0.066 ± 0.11 | 0.008 ± 0.0042 | 0.008 ± 0.0099 | 0.0755 ± 0.052 | -0.022 | -0.05 ± 0.0057 | -0.005 ± 0.047 | 0.018 ± 0.16 | 0.043 ± 0.16 | 0.0695 ± 0.12
9 | CASM3C:PAI-I | 0.007 ± 0.0057 | 0.0045 ± 0.0035 | -0.005 ± 0.028 | -0.0045 ± 0.0021 | -0.008 ± 0.0099 | 0.005 ± 0.017 | 0.0135 ± 0.022 | 0.0165 ± 0.022 | 0.0125 ± 0.044 | -0.0075 ± 0.00071 | -0.0055 ± 0.005 | 0.007 ± 0.013 | -0.002 ± 0.0014 | -0.0015 ± 0.00071 | -0.002 ± 0.0057 | -0.0075 ± 0.0092 | 0.0015 ± 0.00071 | 0.0035 ± 0.0021
10 | MyoF:PAI-I | -0.0225 ± 0.0078 | -0.0345 ± 0.047 | -0.045 ± 0.0099 | -0.0055 ± 0.018 | -0.0105 ± 0.015 | -0.0355 ± 0.015 | 0.0085 ± 0.0064 | -0.003 ± 0.0071 | 0.0085 ± 0.03 | -0.0305 ± 0.0092 | -0.0115 ± 0.0064 | 0.0005 ± 0.013 | -0.0015 ± 0.00071 | 0.0055 ± 0.0035 | 0.0055 ± 0.012 | -0.0115 ± 0.0092 | -0.011 ± 0.018 | -0.0065 ± 0.018
11 | CASM3C:CD106/VCAM-1 | -0.0885 ± 0.028 | -0.0715 ± 0.07 | -0.12 ± 0.067 | -0.033 ± 0.0042 | -0.039 ± 0.037 | 0.004 ± 0.025 | -0.023 ± 0.016 | -0.057 ± 0.0057 | -0.031 ± 0.075 | -0.0105 ± 0.035 | 0.041 ± 0.014 | 0.0775 ± 0.044 | 0.0035 ± 0.0078 | -0.0285 ± 0.025 | -0.0325 ± 0.005 | -0.027 ± 0.014 | -0.038 ± 0.031 | -0.042 ± 0.083
12 | BE3C:tPA | 0.0175 ± 0.018 | 0.0315 ± 0.0035 | 0.026 ± 0.0099 | -0.034 ± 0.02 | -0.051 ± 0.0042 | -0.002 ± 0.04 | -0.001 ± 0.0028 | 0.0175 ± 0.019 | 0.051 ± 0.014 | -0.0765 ± 0.022 | -0.0835 ± 0.0078 | -0.0615 ± 0.086 | 0.012 ± 0.013 | -0.0315 ± 0.03 | 0.011 ± 0.05 | 0.0045 ± 0.021 | 0.028 ± 0.016 | 0.085 ± 0.031
13 | CASM3C:LDLR | -0.0545 ± 0.026 | 0.0515 ± 0.042 | 0.0355 ± 0.063 | -0.008 ± 0.011 | -0.0135 ± 0.011 | -0.002 ± 0.0099 | 0.0305 ± 0.021 | 0.02 ± 0.035 | 0.0415 ± 0.053 | -0.011 ± 0.017 | -0.0115 ± 0.0092 | -0.0135 ± 0.0092 | -0.0145 ± 0.012 | 0.0015 ± 0.0021 | -0.0035 ± 0.025 | -0.019 ± 0.062 | -0.0255 ± 0.013 | -0.0135 ± 0.0035
14 | HDF3CGF:TIMP-2 | 0.025 ± 0.092 | -0.0355 ± 0.032 | -0.1545 ± 0.00071 | -0.014 ± 0.027 | -0.0405 ± 0.0064 | -0.0295 ± 0.0092 | -0.0105 ± 0.013 | -0.023 ± 0.021 | -0.115 ± 0.0064 | 0.0095 ± 0.042 | 0.0365 ± 0.036 | 0.0305 ± 0.036 | -0.026 ± 0.0028 | -0.0335 ± 0.016 | -0.009 ± 0.051 | 0.0105 ± 0.013 | 0.0375 ± 0.021 | 0.06 ± 0.0014
15 | HDF3CGF:CXCL9/MIG | -0.0315 ± 0.025 | -0.083 ± 0.025 | -0.215 ± 0.071 | -0.0115 ± 0.015 | -0.007 ± 0.011 | -0.007 ± 0.0042 | 0.0105 ± 0.028 | 0.007 ± 0.0085 | -0.096 ± 0.016 | -0.003 ± 0.0099 | 0.008 ± 0.017 | -0.006 ± 0.0057 | -0.01 ± 0.02 | -0.0025 ± 0.029 | -0.023 ± 0.025 | -0.0075 ± 0.016 | -0.011 ± 0.014 | -0.039 ± 0.0071
